Data from ChEMBL document CHEMBL2413072, “Synthesis and in vitro anticancer studies of novel C-2 arylidene congeners of lantadenes” (2013).

What was measured:
Format in all cases: functional
Malme-3M [1] = assay: Growth inhibition of human MALME-3M cells assessed as cell growth at 10^-4 M by sulforhodamine B assay; conditions: read-out: Activity
SK-OV-3 = assay: Growth inhibition of human SKOV3 cells assessed as cell growth at 10^-4 M by sulforhodamine B assay; conditions: read-out: Activity
BT-549 = assay: Growth inhibition of human BT549 cells by sulforhodamine B assay
MDA-MB-435 [2] = assay: Growth inhibition of human MDA-MB-435 cells assessed as cell growth at 10^-4 M by sulforhodamine B assay; conditions: read-out: Activity
HOP-62 [3] = assay: Growth inhibition of human HOP62 cells assessed as cell growth at 10^-7 M by sulforhodamine B assay; conditions: read-out: Activity
MOLT-4 = assay: Growth inhibition of human MOLT4 cells assessed as cell growth at 10^-8 M by sulforhodamine B assay; conditions: read-out: Activity
OVCAR-3 [4] = assay: Growth inhibition of human OVCAR3 cells assessed as cell growth at 10^-6 M by sulforhodamine B assay; conditions: read-out: Activity
M14 = assay: Growth inhibition of human M14 cells assessed as cell growth at 10^-4 M by sulforhodamine B assay; conditions: read-out: Activity
[5] = Growth inhibition of human HCC2998 cells assessed as cell growth at 10^-8 M by sulforhodamine B assay; conditions: HCC 2998, read-out: Activity
MDA-MB-468 [6] = assay: Growth inhibition of human MDA-MB-468 cells assessed as cell growth at 10^-8 M by sulforhodamine B assay; conditions: read-out: Activity
SK-MEL-5 = assay: Growth inhibition of human SK-MEL-5 cells by sulforhodamine B assay
CCRF-CEM = assay: Growth inhibition of human CCRF-CEM cells assessed as cell growth at 10^-8 M by sulforhodamine B assay; conditions: read-out: Activity
MDA-MB-468 [7] = assay: Growth inhibition of human MDA-MB-468 cells by sulforhodamine B assay
SNB-19 [8] = assay: Growth inhibition of human SNB19 cells assessed as cell growth at 10^-8 M by sulforhodamine B assay; conditions: read-out: Activity
U-251 = assay: Growth inhibition of human U251 cells by sulforhodamine B assay
UACC-257 = assay: Growth inhibition of human UACC257 cells assessed as cell growth at 10^-8 M by sulforhodamine B assay; conditions: read-out: Activity
PC-3 = assay: Growth inhibition of human PC3 cells assessed as cell growth at 10^-6 M by sulforhodamine B assay; conditions: read-out: Activity
MDA-MB-231 = assay: Growth inhibition of human MDA-MB-231 cells assessed as cell growth at 10^-4 M by sulforhodamine B assay; conditions: read-out: Activity
NCI-H522 = assay: Growth inhibition of human NCI-H522 cells assessed as cell growth at 10^-7 M by sulforhodamine B assay; conditions: read-out: Activity
[9] = Growth inhibition of human HCC2998 cells assessed as cell growth at 10^-4 M by sulforhodamine B assay; conditions: HCC 2998, read-out: Activity
NCI-H226 = assay: Growth inhibition of human NCI-H226 cells assessed as cell growth at 10^-6 M by sulforhodamine B assay; conditions: read-out: Activity
K562 [10] = assay: Growth inhibition of human K562 cells by sulforhodamine B assay
SN12C [11] = assay: Growth inhibition of human SN12C cells assessed as cell growth at 10^-6 M by sulforhodamine B assay; conditions: read-out: Activity
SNB-19 [12] = assay: Growth inhibition of human SNB19 cells assessed as cell growth at 10^-7 M by sulforhodamine B assay; conditions: read-out: Activity
MDA-MB-435 [13] = assay: Growth inhibition of human MDA-MB-435 cells assessed as cell growth at 10^-6 M by sulforhodamine B assay; conditions: read-out: Activity
[14] = Growth inhibition of human Hs 578T cells assessed as cell growth at 10^-8 M by sulforhodamine B assay; conditions: read-out: Activity
MDA-MB-468 [15] = assay: Growth inhibition of human MDA-MB-468 cells assessed as cell growth at 10^-7 M by sulforhodamine B assay; conditions: read-out: Activity
IGROV-1 = assay: Growth inhibition of human IGROV1 cells by sulforhodamine B assay
SNB-19 [16] = assay: Growth inhibition of human SNB19 cells by sulforhodamine B assay
HCT-15 = assay: Growth inhibition of human HCT15 cells assessed as cell growth at 10^-6 M by sulforhodamine B assay; conditions: read-out: Activity
SN12C [17] = assay: Growth inhibition of human SN12C cells assessed as cell growth at 10^-4 M by sulforhodamine B assay; conditions: read-out: Activity
SK-MEL-2 = assay: Growth inhibition of human SK-MEL-2 cells assessed as cell growth at 10^-7 M by sulforhodamine B assay; conditions: read-out: Activity
K562 [18] = assay: Growth inhibition of human K562 cells assessed as cell growth at 10^-8 M by sulforhodamine B assay; conditions: read-out: Activity
SN12C [19] = assay: Growth inhibition of human SN12C cells by sulforhodamine B assay
ACHN = assay: Growth inhibition of human ACHN cells assessed as cell growth at 10^-4 M by sulforhodamine B assay; conditions: read-out: Activity
Malme-3M [20] = assay: Growth inhibition of human MALME-3M cells assessed as cell growth at 10^-8 M by sulforhodamine B assay; conditions: read-out: Activity
OVCAR-3 [21] = assay: Growth inhibition of human OVCAR3 cells assessed as cell growth at 10^-4 M by sulforhodamine B assay; conditions: read-out: Activity
SF-295 = assay: Growth inhibition of human SF295 cells assessed as cell growth at 10^-4 M by sulforhodamine B assay; conditions: read-out: Activity
HOP-62 [22] = assay: Growth inhibition of human HOP62 cells by sulforhodamine B assay
[23] = read-out: LC50 (the source's name)
[24] = read-out: pLC50 (the source's name) (converted)

## C/C=C(/C)C(=O)O[C@@H]1CC(C)(C)C[C@H]2C3=CC[C@@H]4[C@@]5(C)CCC(=O)C(C)(C)[C@@H]5CC[C@@]4(C)[C@]3(C)CC[C@@]12C(=O)O [LANTADENE A]
Malme-3M [1]
  growth at 100 µM: 17%
SK-OV-3
  growth at 100 µM: 32%
BT-549; read-out: GI50
  GI50: 4.73 µM
BT-549; [23]
  CC50: > 100 µM
BT-549; read-out: TGI
  TGI: > 100 µM
BT-549; read-out: pGI50 (converted)
  GI50: 4.68 µM
BT-549; [24]
  CC50: > 100 µM
BT-549; read-out: pTGI (converted)
  TGI: > 100 µM
MDA-MB-435 [2]
  growth at 100 µM: 25%
HOP-62 [3]
  growth at 0.1 µM: 95%
MOLT-4
  growth at 0.01 µM: 104%
OVCAR-3 [4]
  growth at 1 µM: 105%
M14
  growth at 100 µM: 23%
[5]
  growth at 0.01 µM: 106%
MDA-MB-468 [6]
  growth at 0.01 µM: 95%
SK-MEL-5; read-out: GI50
  GI50: 1.22 µM
SK-MEL-5; [23]
  CC50: > 100 µM
SK-MEL-5; read-out: TGI
  TGI: 4.3 µM
SK-MEL-5; read-out: pGI50 (converted)
  GI50: 1.23 µM
SK-MEL-5; [24]
  CC50: > 100 µM
SK-MEL-5; read-out: pTGI (converted)
  TGI: 4.27 µM
CCRF-CEM
  growth at 0.01 µM: 98%
MDA-MB-468 [7]; read-out: GI50
  GI50: 2.58 µM
MDA-MB-468 [7]; [23]
  CC50: > 100 µM
MDA-MB-468 [7]; read-out: TGI
  TGI: > 100 µM
MDA-MB-468 [7]; read-out: pGI50 (converted)
  GI50: 2.57 µM
MDA-MB-468 [7]; [24]
  CC50: > 100 µM
MDA-MB-468 [7]; read-out: pTGI (converted)
  TGI: > 100 µM
SNB-19 [8]
  growth at 0.01 µM: 93%
U-251; read-out: GI50
  GI50: 3.99 µM
U-251; [23]
  CC50: > 100 µM
U-251; read-out: TGI
  TGI: > 100 µM
U-251; read-out: pGI50 (converted)
  GI50: 3.98 µM
U-251; [24]
  CC50: > 100 µM
U-251; read-out: pTGI (converted)
  TGI: > 100 µM
UACC-257
  growth at 0.01 µM: 96%
PC-3
  growth at 1 µM: 68%
MDA-MB-231
  growth at 100 µM: -26%
NCI-H522
  growth at 0.1 µM: 97%
[9]
  growth at 100 µM: 2%
NCI-H226
  growth at 1 µM: 87%
K562 [10]; read-out: GI50
  GI50: 4.72 µM
K562 [10]; read-out: LC50
  LC50: > 100 µM
K562 [10]; read-out: TGI
  TGI: > 100 µM
K562 [10]; read-out: pGI50 (converted)
  GI50: 4.68 µM
K562 [10]; read-out: pLC50 (converted)
  LC50: > 100 µM
K562 [10]; read-out: pTGI (converted)
  TGI: > 100 µM
SN12C [11]
  growth at 1 µM: 85%
SNB-19 [12]
  growth at 0.1 µM: 89%
MDA-MB-435 [13]
  growth at 1 µM: 90%
[14]
  growth at 0.01 µM: 97%
MDA-MB-468 [15]
  growth at 0.1 µM: 83%
IGROV-1; read-out: GI50
  GI50: 6.75 µM
IGROV-1; [23]
  CC50: > 100 µM
IGROV-1; read-out: TGI
  TGI: > 100 µM
IGROV-1; read-out: pGI50 (converted)
  GI50: 6.76 µM
IGROV-1; [24]
  CC50: > 100 µM
IGROV-1; read-out: pTGI (converted)
  TGI: > 100 µM
SNB-19 [16]; read-out: GI50
  GI50: 4.67 µM
SNB-19 [16]; [23]
  CC50: > 100 µM
SNB-19 [16]; read-out: TGI
  TGI: > 100 µM
SNB-19 [16]; read-out: pGI50 (converted)
  GI50: 4.68 µM
SNB-19 [16]; [24]
  CC50: > 100 µM
SNB-19 [16]; read-out: pTGI (converted)
  TGI: > 100 µM
HCT-15
  growth at 1 µM: 87%
SN12C [17]
  growth at 100 µM: 15%
SK-MEL-2
  growth at 0.1 µM: 115%
K562 [18]
  growth at 0.01 µM: 110%
SN12C [19]; read-out: GI50
  GI50: 3.47 µM
SN12C [19]; [23]
  CC50: > 100 µM
SN12C [19]; read-out: TGI
  TGI: > 100 µM
SN12C [19]; read-out: pGI50 (converted)
  GI50: 3.47 µM
SN12C [19]; [24]
  CC50: > 100 µM
SN12C [19]; read-out: pTGI (converted)
  TGI: > 100 µM
ACHN
  growth at 100 µM: 16%
Malme-3M [20]
  growth at 0.01 µM: 98%
OVCAR-3 [21]
  growth at 100 µM: 23%
SF-295
  growth at 100 µM: -6%
HOP-62 [22]; read-out: GI50
  GI50: 20.6 µM
HOP-62 [22]; read-out: LC50
  LC50 (concentration killing 50% of cells): > 100 µM
HOP-62 [22]; read-out: TGI
  TGI: > 100 µM
HOP-62 [22]; read-out: pGI50 (converted)
  GI50: 20.4 µM
HOP-62 [22]; read-out: pLC50 (converted)
  LC50 (concentration killing 50% of cells): > 100 µM
HOP-62 [22]; read-out: pTGI (converted)
  TGI: > 100 µM
